From US11492340B2 (priority 2017, dated 2022)
Several values for one entry are separate records, joined by “and”; a condition that tells them apart may be missing. Equal entries are not always repeated. Where two headings read alike, the source gives them in different places.

Experiments:
[1] = target: T1, isopropyl phosphate-aged eeAChE (Electrophorus electricus, UniProt O42275); format: biochemical, electric eel
T1 construct: purchased Sigma Aldrich

[2] = target: T2, methylphosphonate-aged AChE (Electrophorus electricus, UniProt O42275); format: biochemical, electric eel
T2 construct: purchased Sigma Aldrich
T2 sequence (O42275 24-633): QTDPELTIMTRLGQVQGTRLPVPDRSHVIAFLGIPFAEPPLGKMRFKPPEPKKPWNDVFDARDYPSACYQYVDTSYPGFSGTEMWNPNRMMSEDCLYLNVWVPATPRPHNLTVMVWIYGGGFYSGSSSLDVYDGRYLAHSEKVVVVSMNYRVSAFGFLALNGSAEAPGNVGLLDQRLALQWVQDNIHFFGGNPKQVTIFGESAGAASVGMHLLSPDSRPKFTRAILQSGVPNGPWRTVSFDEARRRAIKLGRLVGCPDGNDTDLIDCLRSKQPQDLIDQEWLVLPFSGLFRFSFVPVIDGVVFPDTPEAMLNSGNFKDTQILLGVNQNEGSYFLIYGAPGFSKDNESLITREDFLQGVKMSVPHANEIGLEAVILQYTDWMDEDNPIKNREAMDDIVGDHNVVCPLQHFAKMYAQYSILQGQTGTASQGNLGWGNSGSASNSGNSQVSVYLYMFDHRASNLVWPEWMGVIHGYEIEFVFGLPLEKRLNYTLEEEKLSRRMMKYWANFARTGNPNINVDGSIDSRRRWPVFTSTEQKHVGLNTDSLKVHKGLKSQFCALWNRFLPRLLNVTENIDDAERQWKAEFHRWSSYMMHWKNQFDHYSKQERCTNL

[3] = target: T3, methylphosphonate-aged eeAChE (Electrophorus electricus, UniProt O42275); format: biochemical, electric eel; conditions: for screening efficacy, relative activity (FIG. 3B), in words: pH 8
T3 construct: purchased Sigma Aldrich
T3 sequence (O42275 24-633): as above

[4] = target: T1, isopropyl phosphate-aged eeAChE; format: biochemical, electric eel; remark: listed apart in the source
[5] = target: T1, isopropyl phosphate-aged eeAChE; format: biochemical, electric eel; conditions: pH 8
[6] = target: T3, methylphosphonate-aged eeAChE; format: biochemical, electric eel; conditions: pH 8
[7] = target: T1, isopropyl phosphate-aged eeAChE; assay: biochemical; design: species or system electric eel
[8] = target: isopropyl phosphate-aged (DFP-treated) recombinant huAChE (Homo sapiens, UniProt P22303); format: biochemical; conditions: pH 9
isopropyl phosphate-aged (DFP-treated) recombinant huAChE, sequence (P22303 32-614): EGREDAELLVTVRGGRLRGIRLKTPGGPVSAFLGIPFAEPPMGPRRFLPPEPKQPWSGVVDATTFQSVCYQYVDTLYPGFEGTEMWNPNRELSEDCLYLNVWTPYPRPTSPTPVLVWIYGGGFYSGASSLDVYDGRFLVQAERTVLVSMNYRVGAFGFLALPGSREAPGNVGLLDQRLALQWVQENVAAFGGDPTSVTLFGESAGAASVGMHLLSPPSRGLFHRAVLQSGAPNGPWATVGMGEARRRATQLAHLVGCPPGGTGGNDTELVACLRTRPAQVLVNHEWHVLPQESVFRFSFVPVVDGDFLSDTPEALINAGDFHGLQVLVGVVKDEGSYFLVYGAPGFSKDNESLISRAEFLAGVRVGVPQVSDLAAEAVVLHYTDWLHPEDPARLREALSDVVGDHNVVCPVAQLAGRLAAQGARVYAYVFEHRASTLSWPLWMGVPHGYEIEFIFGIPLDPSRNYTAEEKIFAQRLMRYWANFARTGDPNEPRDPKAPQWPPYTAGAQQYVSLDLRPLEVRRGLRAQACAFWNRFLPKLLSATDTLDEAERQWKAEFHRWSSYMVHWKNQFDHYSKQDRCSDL

[9] = target: T1, isopropyl phosphate-aged eeAChE; format: biochemical, electric eel; remark: listed apart in the source
physchem = conditions: pH 6
[10] = target: T3, methylphosphonate-aged eeAChE; format: biochemical, electric eel
[11] = target: T3, methylphosphonate-aged eeAChE; assay: biochemical; design: species or system electric eel

T1 sequence (O42275 24-633): as the sequence (O42275 24-633) above

C[n+]1ccccc1/C=N/O [2-PAM, 2-pralidoxime, reference compound]
Percentage of AChE species: Aged [1]: 100% | Percentage of AChE species: Native [1]: 0% | Percentage of AChE species: Realkylated [1]: 0% | Percentage of AChE species: Aged [2]: 100% | Percentage of AChE species: Native [2]: 0% | Percentage of AChE species: Realkylated [2]: 0%

CCN(CC)Cc1ncccc1O [C7, 2-((diethylamino)methyl)pyridin-3-ol]
screening efficacy, relative activity (FIG. 3B), in words [3]: highest efficacy among C1 to C7

Oc1cccnc1CN1CCCC1 [C8, 2-(pyrrolidin-1-ylmethyl)pyridin-3-ol]
Percentage of AChE species: Aged [1]: 84.6% | Percentage of AChE species: Native [1]: 15.4% | Percentage of AChE species: Realkylated [1]: 0% | Relative activity (percentage of positive control) ([4]; pH 6): 0.68 ± 0.06% | Relative activity (percentage of positive control) ([4]; pH 7): 1.04 ± 0.07% | Relative activity (percentage of positive control) ([4]; pH 8): 3.58 ± 0.33% | Relative activity (percentage of positive control) ([4]; pH 9): 5.27 ± 0.59% | apparent reaction rate [5]: 0.20 % per hour | resurrected relative activity [5]: 20.4% and 30.4% | activity in comparison of scaffolds with pyrrolidine leaving group (M series), in words [3]: only active compound in this comparison | reactivation (resurrection of AChE activity) [3]: ~2.5% | screening efficacy, relative activity (FIG. 3B), in words [3]: most potent candidate in this screen | apparent reaction rate [6]: 0.32 % per hour | resurrected relative activity [6]: 32.7% | EC50 [7]: 5.87 mM | Percentage of AChE species: Aged [2]: 97.9% | Percentage of AChE species: Native [2]: 2.1% | Percentage of AChE species: Realkylated [2]: 0% | aged enzyme resurrected [8]: 18% | reactivation (resurrection of AChE activity) [9]: 1.25% | pKa (physchem): 7 to 8 | Relative activity (percentage of positive control) ([10]; pH 6): 0.273 ± 0.004% | Relative activity (percentage of positive control) ([10]; pH 7): 1.24 ± 0.02% | Relative activity (percentage of positive control) ([10]; pH 8): 8.47 ± 0.17% | EC50 [11]: 1.18 mM
